Tested on: Subjects with Osteoarthritis of the Knee
Assay: Second Phase 2 study: safety (treatment-emergent adverse events)
Type: in vivo, human
Details: for Adverse events of special interest, Events / Adverse events of special interest, Subjects, number (%) / Local skin reactions around the treated knees, Events / Local skin reactions around the treated knees, Subjects, number (%) / Requires hospitalization, Events / Requires hospitalization, Subjects, number (%) / Results in death, number (%) / Serious treatment-emergent adverse events, Events / Serious treatment-emergent adverse events, Subjects, number (%) / Severe treatment-emergent adverse events, Events / Severe treatment-emergent adverse events, Subjects, number (%) / To be discontinued from the study due to adverse events, Events / To be discontinued from the study due to adverse events, Subjects, number (%) / To be discontinued from the treatment temporarily due to adverse events, Events / To be discontinued from the treatment temporarily due to adverse events, Subjects, number (%) / Treatment-emergent adverse events, Events / Treatment-emergent adverse events, Subjects, number (%): All Causalities
Excerpt: Safety assessments will be performed at each visit and will include assessment of AEs, vital signs (blood pressure, pulse rate, and oral temperature), clinical laboratories, physical examination, skin irritation, and electrocardiograms (ECGs) as indicated in the study flow chart, Table 47.
Safety assessments will include AEs, vital signs (blood pressures, pulse rate, and oral temperature), clinical laboratories, physical examination, skin irritation, and ECGs at various time points during the study as indicated in the study flow chart.
Adverse events of interest include: local skin reactions around the treated knee(s), upper stomach pain, GI bleeding, serious cardiovascular side effects (e.g., thrombotic events, myocardial infarction, or stroke), jaundice, elevated liver function tests, and nausea.
Safety analyses will be conducted on the SAS. Safety parameters will be listed and summarized using standard descriptive statistics, as appropriate. No formal statistical analyses are planned.

[1] = moderate adverse events, 4.375 mg/knee, BID, N = 71

CCN(CC)CCOC(=O)C(C)c1ccc(CC(C)C)cc1 (stereo not drawn) [2-(diethylamino)ethyl 2-(4-isobutylphenyl)propionate]
Aspartate Aminotransferase Increased: number of adverse events (17.5 mg/knee, BID, N = 70): 1 | Aspartate Aminotransferase Increased: percentage of subjects with adverse events (17.5 mg/knee, BID, N = 70): 1.4% | Aspartate Aminotransferase Increased: subjects with adverse events (17.5 mg/knee, BID, N = 70): 1 | Back Pain: number of adverse events (17.5 mg/knee, BID, N = 70): 1(%)[1] | Back Pain: subjects with adverse events, number (percentage) (17.5 mg/knee, BID, N = 70): 1(%)[1] | Constipation: number of adverse events (17.5 mg/knee, BID, N = 70): 1 | Constipation: percentage of subjects with adverse events (17.5 mg/knee, BID, N = 70): 1.4% | Constipation: subjects with adverse events (17.5 mg/knee, BID, N = 70): 1 | Cough: number of adverse events (17.5 mg/knee, BID, N = 70): 2 | Cough: subjects with adverse events, number (percentage) (17.5 mg/knee, BID, N = 70): 2(2.9%) | Dizziness: number of adverse events (17.5 mg/knee, BID, N = 70): 1 | Dizziness: subjects with adverse events, number (percentage) (17.5 mg/knee, BID, N = 70): 1(1.4%) | Frequency of Positive Fecal Occult Blood Test (17.5 mg/knee, BID, N = 70): 5 | Gastrointestinal Disorders: number of adverse events (17.5 mg/knee, BID, N = 70): 5 | Gastrointestinal Disorders: percentage of subjects with adverse events (17.5 mg/knee, BID, N = 70): 5.7% | Gastrointestinal Disorders: subjects with adverse events (17.5 mg/knee, BID, N = 70): 4 | Gout: number of adverse events (17.5 mg/knee, BID, N = 70): 1 | Gout: percentage of subjects with adverse events (17.5 mg/knee, BID, N = 70): 1.4% | Gout: subjects with adverse events (17.5 mg/knee, BID, N = 70): 1 | Headache: number of adverse events (17.5 mg/knee, BID, N = 70): 1 | Headache: subjects with adverse events, number (percentage) (17.5 mg/knee, BID, N = 70): 1(1.4%) | Hypercholesterolaemia: number of adverse events (17.5 mg/knee, BID, N = 70): 2 | Hypercholesterolaemia: percentage of subjects with adverse events (17.5 mg/knee, BID, N = 70): 2.9% | Hypercholesterolaemia: subjects with adverse events (17.5 mg/knee, BID, N = 70): 2 | Hypertriglyceridemia: number of adverse events (17.5 mg/knee, BID, N = 70): 6 | Hypertriglyceridemia: percentage of subjects with adverse events (17.5 mg/knee, BID, N = 70): 8.6% | Hypertriglyceridemia: subjects with adverse events (17.5 mg/knee, BID, N = 70): 6 | Infections and Infestations: number of adverse events (17.5 mg/knee, BID, N = 70): 14 | Infections and Infestations: subjects with adverse events, number (percentage) (17.5 mg/knee, BID, N = 70): 13(18.6%) | Investigations: number of adverse events (17.5 mg/knee, BID, N = 70): 1 | Investigations: percentage of subjects with adverse events (17.5 mg/knee, BID, N = 70): 1.4% | Investigations: subjects with adverse events (17.5 mg/knee, BID, N = 70): 1 | Metabolism and Nutrition Disorders: number of adverse events (17.5 mg/knee, BID, N = 70): 9 | Metabolism and Nutrition Disorders: percentage of subjects with adverse events (17.5 mg/knee, BID, N = 70): 11.4% | Metabolism and Nutrition Disorders: subjects with adverse events (17.5 mg/knee, BID, N = 70): 9 | Muscle Spasms: number of adverse events (17.5 mg/knee, BID, N = 70): 3 | Muscle Spasms: subjects with adverse events, number (percentage) (17.5 mg/knee, BID, N = 70): 2 | Musculoskeletal Pain: number of adverse events (17.5 mg/knee, BID, N = 70): 2 | Musculoskeletal Pain: subjects with adverse events, number (percentage) (17.5 mg/knee, BID, N = 70): 1 | Musculoskeletal and Connective Tissue Disorders, Overall Total: number of adverse events (17.5 mg/knee, BID, N = 70): 8 | Musculoskeletal and Connective Tissue Disorders, Overall Total: subjects with adverse events, number (percentage) (17.5 mg/knee, BID, N = 70): 6(8.6%) | Neck Pain: number of adverse events (17.5 mg/knee, BID, N = 70): 1(%)[1] | Neck Pain: subjects with adverse events, number (percentage) (17.5 mg/knee, BID, N = 70): 1(%)[1] | Nervous System Disorders: number of adverse events (17.5 mg/knee, BID, N = 70): 2 | Nervous System Disorders: subjects with adverse events, number (percentage) (17.5 mg/knee, BID, N = 70): 2(2.9%) | Pain in Extremity: number of adverse events (17.5 mg/knee, BID, N = 70): 1(%)[1] | Pain in Extremity: subjects with adverse events, number (percentage) (17.5 mg/knee, BID, N = 70): 1(%)[1] | Rash: number of adverse events (17.5 mg/knee, BID, N = 70): 2 | Rash: percentage of subjects with adverse events (17.5 mg/knee, BID, N = 70): 4.2% | Rash: subjects with adverse events (17.5 mg/knee, BID, N = 70): 2 | Respiratory, Thoracic and Mediastinal Disorders: number of adverse events (17.5 mg/knee, BID, N = 70): 2 | Respiratory, Thoracic and Mediastinal Disorders: subjects with adverse events, number (percentage) (17.5 mg/knee, BID, N = 70): 2(2.9%) | Skin Irritation: number of adverse events (17.5 mg/knee, BID, N = 70): 4 | Skin Irritation: percentage of subjects with adverse events (17.5 mg/knee, BID, N = 70): 1.4% | Skin Irritation: subjects with adverse events (17.5 mg/knee, BID, N = 70): 3 | Skin and Subcutaneous Tissue Disorders: number of adverse events (17.5 mg/knee, BID, N = 70): 6 | Skin and Subcutaneous Tissue Disorders: percentage of subjects with adverse events (17.5 mg/knee, BID, N = 70): 7.1% | Skin and Subcutaneous Tissue Disorders: subjects with adverse events (17.5 mg/knee, BID, N = 70): 5 | Subjects with Positive Fecal Occult Blood Test (17.5 mg/knee, BID, N = 70): 5 | Subjects with Positive Fecal Occult Blood Test, percentage (17.5 mg/knee, BID, N = 70): 7.1% | Toothache: number of adverse events (17.5 mg/knee, BID, N = 70): 1 | Toothache: percentage of subjects with adverse events (17.5 mg/knee, BID, N = 70): 1.4% | Toothache: subjects with adverse events (17.5 mg/knee, BID, N = 70): 1 | Upper Respiratory Tract Infection: number of adverse events (17.5 mg/knee, BID, N = 70): 5 | Upper Respiratory Tract Infection: subjects with adverse events, number (percentage) (17.5 mg/knee, BID, N = 70): 5(7.1%) | Urinary Tract Infection: number of adverse events (17.5 mg/knee, BID, N = 70): 9 | Urinary Tract Infection: subjects with adverse events, number (percentage) (17.5 mg/knee, BID, N = 70): 8(11.4%) | Adverse events of special interest, Events (4.375 mg/knee BID, n = 71): 16 | Adverse events of special interest, Subjects, number (%) (4.375 mg/knee BID, n = 71): 11 (15.5%) | Local skin reactions around the treated knees, Events (4.375 mg/knee BID, n = 71): 1 | Local skin reactions around the treated knees, Subjects, number (%) (4.375 mg/knee BID, n = 71): 1 (1.4%) | Requires hospitalization, Events (4.375 mg/knee BID, n = 71): 0 | Requires hospitalization, Subjects, number (%) (4.375 mg/knee BID, n = 71): 0 | Results in death, number (%) (4.375 mg/knee BID, n = 71): 1 (1.4%) | Serious treatment-emergent adverse events, Events (4.375 mg/knee BID, n = 71): 1 | Serious treatment-emergent adverse events, Subjects, number (%) (4.375 mg/knee BID, n = 71): 1 (1.4) | Severe treatment-emergent adverse events, Events (4.375 mg/knee BID, n = 71): 1 | Severe treatment-emergent adverse events, Subjects, number (%) (4.375 mg/knee BID, n = 71): 1 (1.4%) | To be discontinued from the study due to adverse events, Events (4.375 mg/knee BID, n = 71): 1 | To be discontinued from the study due to adverse events, Subjects, number (%) (4.375 mg/knee BID, n = 71): 1 (1.4%) | To be discontinued from the treatment temporarily due to adverse events, Events (4.375 mg/knee BID, n = 71): 1 | To be discontinued from the treatment temporarily due to adverse events, Subjects, number (%) (4.375 mg/knee BID, n = 71): 1 (1.4%) | Treatment-emergent adverse events, Events (4.375 mg/knee BID, n = 71): 68 | Treatment-emergent adverse events, Subjects, number (%) (4.375 mg/knee BID, n = 71): 41 (57.7%) | Adverse events of special interest, Events (8.75 mg/knee BID, n = 70): 12 | Adverse events of special interest, Subjects, number (%) (8.75 mg/knee BID, n = 70): 10 (14.3) | Local skin reactions around the treated knees, Events (8.75 mg/knee BID, n = 70): 1 | Local skin reactions around the treated knees, Subjects, number (%) (8.75 mg/knee BID, n = 70): 1 (1.4%) | Requires hospitalization, Events (8.75 mg/knee BID, n = 70): 1 | Requires hospitalization, Subjects, number (%) (8.75 mg/knee BID, n = 70): 1 (1.4%) | Results in death, number (%) (8.75 mg/knee BID, n = 70): 0 | Serious treatment-emergent adverse events, Events (8.75 mg/knee BID, n = 70): 1 | Serious treatment-emergent adverse events, Subjects, number (%) (8.75 mg/knee BID, n = 70): 1 (1.4) | Severe treatment-emergent adverse events, Events (8.75 mg/knee BID, n = 70): 1 | Severe treatment-emergent adverse events, Subjects, number (%) (8.75 mg/knee BID, n = 70): 1 (1.4%) | To be discontinued from the study due to adverse events, Events (8.75 mg/knee BID, n = 70): 0 | To be discontinued from the study due to adverse events, Subjects, number (%) (8.75 mg/knee BID, n = 70): 0 | To be discontinued from the treatment temporarily due to adverse events, Events (8.75 mg/knee BID, n = 70): 1 | To be discontinued from the treatment temporarily due to adverse events, Subjects, number (%) (8.75 mg/knee BID, n = 70): 1 (1.4%) | Treatment-emergent adverse events, Events (8.75 mg/knee BID, n = 70): 71 | Treatment-emergent adverse events, Subjects, number (%) (8.75 mg/knee BID, n = 70): 39 (55.7%) | Adverse events of special interest, Events (17.5 mg/knee BID, n = 70): 14 | Adverse events of special interest, Subjects, number (%) (17.5 mg/knee BID, n = 70): 11 (15.7) | Local skin reactions around the treated knees, Events (17.5 mg/knee BID, n = 70): 5 | Local skin reactions around the treated knees, Subjects, number (%) (17.5 mg/knee BID, n = 70): 4 (5.7%) | Requires hospitalization, Events (17.5 mg/knee BID, n = 70): 0 | Requires hospitalization, Subjects, number (%) (17.5 mg/knee BID, n = 70): 0 | Results in death, number (%) (17.5 mg/knee BID, n = 70): 0 | Serious treatment-emergent adverse events, Events (17.5 mg/knee BID, n = 70): 0 | Serious treatment-emergent adverse events, Subjects, number (%) (17.5 mg/knee BID, n = 70): 0 | Severe treatment-emergent adverse events, Events (17.5 mg/knee BID, n = 70): 0 | Severe treatment-emergent adverse events, Subjects, number (%) (17.5 mg/knee BID, n = 70): 0 | To be discontinued from the study due to adverse events, Events (17.5 mg/knee BID, n = 70): 1 | To be discontinued from the study due to adverse events, Subjects, number (%) (17.5 mg/knee BID, n = 70): 1 (1.4%) | To be discontinued from the treatment temporarily due to adverse events, Events (17.5 mg/knee BID, n = 70): 0 | To be discontinued from the treatment temporarily due to adverse events, Subjects, number (%) (17.5 mg/knee BID, n = 70): 0 | Treatment-emergent adverse events, Events (17.5 mg/knee BID, n = 70): 52 | Treatment-emergent adverse events, Subjects, number (%) (17.5 mg/knee BID, n = 70): 30 (42.9%) | safety and tolerability (all three doses (4.375, 8.75, 17.5 mg/knee BID)): appeared to be safe and were generally well tolerated | skin irritation incidences, total (all mild) (in vivo): 9 | overall safety vs oral ibuprofen (in vivo, po): safer than oral ibuprofen | Gastroenteritis: number of adverse events [1]: 1 | Gastroenteritis: percentage of subjects with adverse events [1]: 1.4%

— patent US20240024273A1, “TOPICAL ADMINISTRATION OF 2-(DIETHYLAMINO)ETHYL 2-(4-ISOBUTYLPHENYL)PROPRIONATE FOR TREATMENT OF DISEASES” (TECHFIELDS PHARMA CO., LTD., priority 2020, published 2024)
